From patent EP2924039A1, “2-Amino-1-phenyl-pyrrolo[3,2-b]quinoxaline-3-carboxamide derivates” (Universität Zürich, priority 2014, dated 2015) come the findings set out here.

Test [1] deals with A498 (kidney cancer) cells. Description: Cell culture and GI50 determination (resazurin), A-498. Particulars: Homo sapiens, A-498, 48h incubation. It is filed as cell-based. The protocol: (§1) Krek (Institute of Cell Biology, ETH Zurich) were cultured in Dulbelcco's modified Eagle's medium (DMEM) supplemented with 10% (v/v) fetal bovine serum. K562 leukemia cells obtained from Dr. Silvio Hemmi (Institute of Molecular Life Sciences, UZH) were cultured using RPMI medium supplemented with 5% (v/v) fetal bovine serum. All the media was additionally supplemented with 100 units/mL of penicillin, 100µg/mL of streptomycin, 4.5 g/L glucose, 0.11g/L sodium pyrubate and 2mM glutamine and the cells were grown at 37°C in 5% CO2 atmosphere with 80% relative humidity.
(§2) The old media was removed, the cells were washed with PBS (phosphate-buffered saline) and fresh media was added. […] Control cells were treated with the same DMSO concentrations. […] After 3 hours, the fluorescence was quantified using a fluorescence microplate reader (Biotek, FLx800™) at the respective excitation and emission wavelength of 560 and 590 nm. Resazurin becomes fluorescent under mitochondrial reduction and its emission directly correlates with the metabolic stability of the cells. […] All measurements were performed at least in triplicate (see table 1).
A general note: The colour change of resazurin is a common sign of viable cells or microbes.

A further test has as its target T1, EphA3 (Homo sapiens, UniProt P29320).
T1 construct: A clone of EphA3 kinase domain (residues: 606-947); made in house; host or cells: Escherichia coli BL21 (DE3)
T1 sequence (P29320 606-947): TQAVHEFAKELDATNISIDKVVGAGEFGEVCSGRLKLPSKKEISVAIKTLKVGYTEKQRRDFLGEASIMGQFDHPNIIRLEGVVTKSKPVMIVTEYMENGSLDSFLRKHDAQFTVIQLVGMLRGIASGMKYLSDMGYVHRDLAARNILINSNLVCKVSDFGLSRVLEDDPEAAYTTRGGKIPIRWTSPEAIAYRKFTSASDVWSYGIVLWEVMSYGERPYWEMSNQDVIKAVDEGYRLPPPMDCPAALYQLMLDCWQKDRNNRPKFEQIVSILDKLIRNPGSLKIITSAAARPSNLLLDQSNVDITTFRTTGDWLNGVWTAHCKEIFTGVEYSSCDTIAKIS
Description: Differential Scanning Fluorimetry. It is filed as binding. Particulars: 2 µM EphA3, compound 20µM; read-out: Delta Tm. The protocol:
Cell pellets were resuspended in buffer A (50mM Tris, pH 8.0 and 100mM NaCl, supplemented with protease inhibitors) and lysed by sonication. After centrifugation at 15,000 rpm for 1 h, the soluble fraction of EphA3 was purified using […] (GE healthcare), followed by gel filtration chromatography (Superdex75; GE healthcare). The appropriate fractions were combined and concentrated to ~10 mg/mL using Amicon filter devices (10kDa as cutoff) in a storage solution (100mM sodium chloride and 10mM Tris-HCl pH 8.0, 5% glycerol). The resulting solution was aliquoted and stored at -80°C for further usage.
A final volume of 40µL was added per well in a 96 well plate and incubated at room temperature for 1 h. The plates were centrifuged for 3 min at 450 rcf. The temperature gradient was performed in the range of 25°C-75°C (50 acquisitions per degree at a ramp rate of 4.4°C/s) using a LightCycler 480 Real-Time PCR System. […] All measurements were performed in triplicate.
(Differential scanning fluorimetry follows unfolding on heating by fluorescence.)

Test [2] deals with MDA-MB-231 (breast cancer) cells. Nature of the test: Cell culture and GI50 determination (resazurin), MDA-MB-231. Particulars: Homo sapiens, MDA-MB-231, 72 h. It is filed as cell-based. The protocol: as §1, §2
A further test has as its system HT-29. Description: Cell culture and GI50 determination (resazurin), HT-29. The class given is cell-based. Particulars: Homo sapiens; HT-29, resazurin. On the procedure:
as §2

Test [3] relates to KM12 (colon cancer) cells. Description: Cell culture and GI50 determination (resazurin), KM12. The class given is cell-based. Particulars: Homo sapiens. The protocol: as §1, §2
For test [4], the system named is HOP-92 (lung cancer) cells. Description: Cell culture and GI50 determination (resazurin), HOP-92. Particulars: Homo sapiens; HOP-92, resazurin. The class given is cell-based. On the procedure:
as §1, §2

The next test concerns K-562 leukemia cells. Nature of the test: Cell culture and GI50 determination (resazurin), K-562. It is filed as cell-based. Particulars: Homo sapiens, K562, K-562, 48 hour incubation. On the procedure:
as §1
After 24 hours, 12.5 µL of a 10 fold concentrated drug or DMSO solution in RMPI media was added in every well. After 48 hour incubation, cell viability was studied by measuring the ability of the cells to process resazurin.

The target of the next test is T2, full-length human EphB4 (Homo sapiens, UniProt P54760).
T2 construct: stably transfected to overexpress full-length human EphB4; host or cells: Mouse embryonic fibroblast cells
T2 sequence (P54760 16-987): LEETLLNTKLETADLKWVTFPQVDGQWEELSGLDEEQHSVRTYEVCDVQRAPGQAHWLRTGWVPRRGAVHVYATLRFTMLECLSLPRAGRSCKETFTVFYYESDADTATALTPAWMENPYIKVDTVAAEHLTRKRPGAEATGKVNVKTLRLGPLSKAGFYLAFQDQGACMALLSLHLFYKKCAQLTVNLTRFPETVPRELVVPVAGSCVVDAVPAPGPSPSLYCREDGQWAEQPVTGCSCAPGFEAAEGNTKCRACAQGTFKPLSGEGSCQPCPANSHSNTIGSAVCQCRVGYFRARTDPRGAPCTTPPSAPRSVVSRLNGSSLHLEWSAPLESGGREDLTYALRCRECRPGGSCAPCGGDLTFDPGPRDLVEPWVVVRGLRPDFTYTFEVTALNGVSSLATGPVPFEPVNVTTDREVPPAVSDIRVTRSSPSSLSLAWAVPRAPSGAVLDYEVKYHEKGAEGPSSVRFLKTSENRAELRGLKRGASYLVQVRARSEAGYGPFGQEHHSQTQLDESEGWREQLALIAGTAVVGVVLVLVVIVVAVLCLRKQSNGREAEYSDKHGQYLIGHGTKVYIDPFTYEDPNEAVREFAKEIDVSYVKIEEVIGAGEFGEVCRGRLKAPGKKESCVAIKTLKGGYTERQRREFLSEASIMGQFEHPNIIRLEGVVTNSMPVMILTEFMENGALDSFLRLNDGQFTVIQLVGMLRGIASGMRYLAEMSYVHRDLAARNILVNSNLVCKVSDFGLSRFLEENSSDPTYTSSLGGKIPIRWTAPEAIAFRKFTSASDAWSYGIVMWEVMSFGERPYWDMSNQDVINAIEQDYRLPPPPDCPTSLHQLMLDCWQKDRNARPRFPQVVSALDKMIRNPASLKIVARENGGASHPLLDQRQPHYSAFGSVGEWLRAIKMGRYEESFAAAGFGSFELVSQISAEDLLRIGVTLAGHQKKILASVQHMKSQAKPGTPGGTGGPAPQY
Description: Cellular phosphorylation assay (sandwich ELISA, ProQinase). The class given is cell-based. Particulars: mouse embryonic fibroblast cells overexpressing EphB4, stimulated with murine ephrinB2-Fc, read-out: cell IC50. The protocol: Cellular phosphorylation assays: The cellular phosphorylation experiments were performed at ProQinase GmbH. Mouse embryonic fibroblast cells, stably transfected to overexpress full-length human EphB4, were plated at 4×10^4 cells/well in DMEM supplemented with 10% FCS in 48-well culture dishes. Medium was replaced by DMEM without FCS before test compounds prediluted in 100% DMSO were added (final DMSO concentration of 1 %). After incubation for 90 min at 37 °C, cells were stimulated for 2 h at 4 °C using murine ephrinB2-Fc at a final concentration of 2 µg/ml. Quantification of EphB4 phosphorylation was assessed in a 96-well plate via sandwich ELISA using a myc capture antibody and an antiphosphotyrosine detection antibody. Table 4: Cell IC50 (µmol/l) in cells overexpressing EphB4

The subject of test [5] is panel of 456 protein kinases. Nature of the test: Selectivity profiling at DiscoveRx (KinomeScan). The class given is binding. Particulars: 1 µM compound; for one or more of the protein kinases listed. The protocol:
The selectivity profiling of compounds 10c, 10d, 10n and 10o were performed at DiscoveRx in a library of 456 kinases at a concentration of 1 µM. Briefly, kinases were mostly expressed as fusion proteins to […] and grown in 24-well blocks in E. Coli (derived from the BL21 strain). The rest of the kinases were expressed in HEK-293 cells and tagged with DNA for qPCR detection. Affinity resins were generated by mixing streptavidin-coated magnetic beads with biotinylated small molecule ligands for 30 minutes at 25 °C, followed by biotin and blocking buffer addition (SeaBlock (Pierce), 1 % BSA, 0.05 % Tween 20, 1 mM DTT). Inhibitors were kept at 40x stocks in 100% DMSO and added to the corresponding 384-well plates (40 µL). […] The kinase concentration present in the eluate was determined by qPCR. For further details, see Fabian, et. al., Nat. Biotechnol., 2005, 23 (3), 329-33.

The GI50 is the concentration giving 50% growth inhibition. A word on the IC50: it is the concentration at which inhibition is half-maximal.

In the case of `Cc1ccc(NC(=O)c2cccc(C(F)(F)F)c2)cc1-n1c(N)c(C(N)=O)c2nc3ccccc3nc21` [Compound 10g, 2-amino-1-(2-methyl-5-(3-(trifluoromethyl)benzamido)phenyl)-1H-pyrrolo[2,3-b]quinoxaline-3-carboxamide], the GI50 was found to be 2.5 µM in test [1]; 3.88 µM in test [2]; 5.87 µM in the test with HT-29; 0.8 µM in test [3]; 4.23 µM in test [4]; 0.73 µM in the test on K-562 leukemia cells. The ΔTm at 20 µM at EphA3 amounted to 12.3 °C.
As for `NC(=O)c1c(N)n(-c2cc(NC(=O)c3cccc(C(F)(F)F)c3)ccc2F)c2nc3ccccc3nc12` [Compound 10h, 2-amino-1-(2-fluoro-5-(3-(trifluoromethyl)benzamido)phenyl)-1H-pyrrolo[2,3-b]quinoxaline-3-carboxamide], the GI50 stood at 1.88 µM in [1]; 1.44 µM in test [2]; 1.8 µM in the test on HT-29; 2.16 µM in test [3]; 2.06 µM in test [4]; 0.37 µM with K-562 leukemia cells. In addition, at EphA3, the ΔTm at 20 µM stood at 10.9 °C.
On to `Cc1ccc(C(=O)Nc2cccc(C(F)(F)F)c2)cc1-n1c(N)c(C(N)=O)c2nc3ccccc3nc21` [Compound 10i], for which the GI50 in test [1] is 2.07 µM; in [2], 1.32 µM; in the test on HT-29, 2.82 µM; in [3], 1.57 µM; in test [4], 1.92 µM; with K-562 leukemia cells, 0.036 µM. Besides, at EphA3, the ΔTm at 20 µM was found to be 14.4 °C.
On to `NC(=O)c1c(N)n(-c2cc(C(=O)Nc3cccc(C(F)(F)F)c3)ccc2F)c2nc3ccccc3nc12` [Compound 10j], for which the GI50 in test [1] is 2.44 µM; in test [2], 2.69 µM; in the test on HT-29 it was 2.97 µM; in test [3], 1.87 µM; in test [4], 2.12 µM; with K-562 leukemia cells, 0.081 µM. In addition, the ΔTm at 20 µM at EphA3 was 13 °C.
Consider `NC(=O)c1c(N)n(-c2ccc(NC(=S)Nc3cccc(C(F)(F)F)c3)cc2)c2nc3ccccc3nc12` [Compound 10k, 2-amino-1-(4-(3-(3-(trifluoromethyl)phenyl)thioureido)phenyl)-1H-pyrrolo[2,3-b]quinoxaline-3-carboxamide], for which the GI50 in [1] was 8.73 µM; in test [2] it was 9.63 µM; in the test on HT-29 it was 16.3 µM; in test [3], 2.52 µM; in test [4], 4.25 µM; in the test on K-562 leukemia cells, 5.07 µM. Besides, at EphA3, the ΔTm at 20 µM stood at 9.9 °C.
As to `Cc1cn(-c2cc(NC(=O)c3ccc(C)c(-n4c(N)c(C(N)=O)c5nc6ccccc6nc54)c3)cc(C(F)(F)F)c2)cn1` [Compound 10l], the GI50 in test [1] worked out at 5.71 µM; in test [2], 3.05 µM; in the test with HT-29, 4.36 µM; in test [3], 2.84 µM; in test [4], 3.01 µM; in the test on K-562 leukemia cells, 0.029 µM. In addition, the ΔTm at 20 µM on EphA3 worked out at 16.2 °C.
Take `Cc1cn(-c2cc(C(=O)Nc3ccc(C)c(-n4c(N)c(C(N)=O)c5nc6ccccc6nc54)c3)cc(C(F)(F)F)c2)cn1` [Compound 10m]: the GI50 in [1] was 4.01 µM; in test [2], 1.93 µM; with HT-29 it was 13.4 µM; in test [3] it was 2.54 µM; in test [4] it was 5.12 µM; in the test on K-562 leukemia cells, 0.03 µM. Also, on EphA3, the ΔTm at 20 µM stood at 15.8 °C.
Consider `CC(C)(C)c1cc(NC(=O)Nc2ccc(-n3c(N)c(C(N)=O)c4nc5ccccc5nc43)cc2)n(-c2ccc3ncccc3c2)n1` [Compound 10n, 2-amino-1-(4-(3-(5-tert-butyl-2-quinolin-6-yl-2H-pyrazol)ureido)phenyl)-1H-pyrrolo[2,3-b]quinoxaline-3-carboxamide], for which the GI50 in test [1] was 0.73 µM; in [2], 0.21 µM; in the test on HT-29, 1.25 µM; in [3] it was 0.15 µM; in test [4] it was 0.45 µM; in the test with K-562 leukemia cells, 0.003 µM. Moreover, the ΔTm at 20 µM at EphA3 was 19.3 °C. Besides, the IC50 at full-length human EphB4 was determined as 1.1 µM. Further, the “control binding to the kinase in presence of the compound relative to control binding in absence of the compound” value in test [5] is reported as “less than 10% of control”.
With `NC(=O)c1c(N)n(-c2ccc(NC(=O)Nc3cccc(C(F)(F)F)c3)cc2)c2nc3ccccc3nc12` [Compound 10p, 2-amino-1-(4-(3-(3-(trifluoromethyl)phenyl)ureido)phenyl)-1H-pyrrolo[2,3-b]quinoxaline-3-carboxamide], the GI50 in test [1] worked out at 10.8 µM; in test [2], 10.3 µM; in the test with HT-29 it was 18 µM; in test [3] it was 0.67 µM; in test [4], 10 µM; in the test with K-562 leukemia cells it was 5.45 µM.
